Active and inactive are the calls of the source. No cut-off for these calls is given here.
Assays:
MGC-803 [1] = assay: Induction of apoptosis in human MGC-803 cells assessed as upregulation of Bax protein level at 1 to 3 uM measured after 48 hrs by western blot analysis; type: functional, cell-based; details: dose 1-3 µM
MGC-803 [2] = assay: Induction of apoptosis in human MGC-803 cells assessed as increase in number of apoptotic cells measured after 48 hrs by flow cytometry; type: functional, cell-based; details: dose 1-3 µM
MGC-803 [3] = assay: Induction of cell morphological changes in human MGC-803 cells assessed as increase in dead cells by measuring red fluorescence at 3 uM measured after 48 hrs in the presence of NEDDylation inhibitor, MLN4924 by calcein-AM/PI staining based fluorescence analysis; type: functional
MGC-803 [4] = assay: Induction of G2/M phase arrest in human MGC-803 cells assessed as downregulation of p-Cdc2 protein expression at 1 to 3 uM measured after 48 hrs by western blot analysis; type: functional, cell-based; details: dose 1-3 µM
[5] = target: T1, NEDD8-activating enzyme E1 regulatory subunit (Homo sapiens) (UniProt Q13564); assay: Activation of NAE1 in human MGC-803 cells assessed as decrease in c-Myc expression at 1 to 3 uM measured after 48 hrs by western blot analysis; type: cell-based; details: filed as agonist, dose 1-3 µM
T1 sequence (whole entry): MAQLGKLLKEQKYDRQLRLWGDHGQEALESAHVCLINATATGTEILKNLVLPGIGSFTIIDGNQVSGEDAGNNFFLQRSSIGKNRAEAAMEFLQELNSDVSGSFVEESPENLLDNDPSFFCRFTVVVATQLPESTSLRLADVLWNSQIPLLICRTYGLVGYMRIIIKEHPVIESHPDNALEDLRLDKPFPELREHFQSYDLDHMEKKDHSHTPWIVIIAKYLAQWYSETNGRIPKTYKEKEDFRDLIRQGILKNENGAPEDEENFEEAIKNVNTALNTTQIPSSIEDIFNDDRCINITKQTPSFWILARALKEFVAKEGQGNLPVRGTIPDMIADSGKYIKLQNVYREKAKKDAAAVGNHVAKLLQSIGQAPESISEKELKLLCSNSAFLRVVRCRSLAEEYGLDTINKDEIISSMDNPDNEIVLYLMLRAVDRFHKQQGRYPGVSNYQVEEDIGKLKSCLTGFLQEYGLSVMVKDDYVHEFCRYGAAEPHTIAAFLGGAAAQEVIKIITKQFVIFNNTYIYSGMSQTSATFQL

[6] = target: T1, NEDD8-activating enzyme E1 regulatory subunit (Homo sapiens); assay: Activation of NAE1 in human MGC-803 cells assessed as decrease in c-Myc expression at 3 uM measured after 48 hrs in the presence of NEDDylation inhibitor, MLN4924 by western blot analysis; type: cell-based
HGC-27 [7] = assay: Induction of apoptosis in human HGC-27 cells assessed as down regulation of Bcl-2 protein level at 1 to 9 uM measured after 48 hrs by western blot analysis; type: functional, cell-based; details: dose 1-9 µM
MGC-803 [8] = assay: Induction of mitochondrial membrane potential depolarization in human MGC-803 cells at 1 to 3 uM measured after 48 hrs by JC-1 staining based flow cytometry analysis; type: functional, cell-based; details: dose 1-3 µM
[9] = target: T1, NEDD8-activating enzyme E1 regulatory subunit (Homo sapiens); assay: Activation of NAE1 in human HGC-27 cells assessed as PARP cleavage at 1 to 9 uM measured after 48 hrs by western blot analysis; type: cell-based; details: filed as agonist, dose 1-9 µM
MGC-803 [10] = assay: Inhibition of colony formation in human MGC-803 cells assessed as reduction in number of colonies at 0.125 to 1 uM incubated for 7 days by crystal violet staining based assay; type: functional, cell-based; details: dose 0.125-1 µM, time 7.0 day
[11] = target: T1, NEDD8-activating enzyme E1 regulatory subunit (Homo sapiens); assay: Activation of NAE1 in human MGC-803 cells transfected with NEDD8 siRNA assessed as decrease in c-Myc level at 3 uM measured after 48 hrs by western blot analysis; type: cell-based
MGC-803 [12] = assay: Induction of apoptosis in human MGC-803 cells at 3 uM measured after 48 hrs in the presence of NEDDylation inhibitor, MLN4924 by flow cytometry analysis; type: functional, cell-based
HGC-27 [13] = assay: Induction of cell morphological changes in human HGC-27 cells assessed as increase in dead cells by measuring red fluorescence at 9 uM measured after 48 hrs in the presence of NEDDylation inhibitor, MLN4924 by calcein-AM/PI staining based fluorescence analysis; type: functional
MGC-803 [14] = assay: Induction of cell morphological changes in human MGC-803 cells transfected with NEDD8 siRNA assessed as reduction in cell density at 3 uM measured after 48 hrs by calcein-AM/PI staining based fluorescence analysis; type: functional
[15] = target: T1, NEDD8-activating enzyme E1 regulatory subunit (Homo sapiens); assay: Activation of NAE1 in human HGC-27 cells assessed as decrease in c-Myc expression at 1 to 9 uM measured after 48 hrs by western blot analysis; type: cell-based; details: filed as agonist, dose 1-9 µM
HGC-27 [16] = assay: Antiproliferative activity against human HGC-27 cells assessed as reduction in cell viability at 3 uM measured every 60 mins for 48 hrs by xCELLigence based RTCA analysis; type: functional
MGC-803 [17] = assay: Induction of G2/M phase arrest in human MGC-803 cells assessed as upregulation of p-histone H3 expression at 1 to 3 uM measured after 48 hrs by western blot analysis; type: functional, cell-based; details: dose 1-3 µM
MGC-803 [18] = assay: Downregulation of phosphorylated LATS1 level in human MGC-803 cells at 1 to 3 uM measured after 48 hrs by western blot analysis; type: functional, cell-based; details: dose 1-3 µM
[19] = target: T1, NEDD8-activating enzyme E1 regulatory subunit (Homo sapiens); assay: Activation of NAE1-mediated protein degradation in human MGC-803 cells assessed as decrease in c-IAPI level at 1 to 3 uM measured after 48 hrs by western blot analysis; type: cell-based; details: filed as agonist, dose 1-3 µM
[20] = target: T1, NEDD8-activating enzyme E1 regulatory subunit (Homo sapiens); assay: Activation of NAE1 in human MGC-803 cells assessed as downregulation of YAP/TAZ level at 3 uM measured after 48 hrs in the presence of proteosome inhibitor, MG132 by western blot analysis; type: cell-based
[21] = target: T1, NEDD8-activating enzyme E1 regulatory subunit (Homo sapiens); assay: Activation of NAE1-mediated protein degradation in human HGC-27 cells assessed as decrease in c-IAPI level at 1 to 9 uM measured after 48 hrs by western blot analysis; type: cell-based; details: filed as agonist, dose 1-9 µM
MGC-803 [22] = assay: Induction of cell morphological changes in human MGC-803 cells assessed as reduction in cell density at 1 to 3 uM incubated for 48 hrs by calcein-AM/PI staining based fluorescence analysis; type: functional; details: dose 1-3 µM
MGC-803 [23] = assay: Induction of apoptosis in human MGC-803 cells assessed as down regulation of Mcl-1 protein level at 1 to 3 uM measured after 48 hrs by western blot analysis; type: functional, cell-based; details: dose 1-3 µM
HGC-27 [24] = assay: Antiproliferative activity against human HGC-27 cells assessed as reduction in cell viability measured every 60 mins for 48 hrs by xCELLigence based RTCA analysis; type: functional
HGC-27 [25] = assay: Induction of G2/M phase arrest in human HGC-27 cells at 9 uM measured after 48 hrs in the presence of NEDDylation inhibitor, MLN4924 by flow cytometry; type: functional, cell-based
[26] = target: T1, NEDD8-activating enzyme E1 regulatory subunit (Homo sapiens); assay: Activation of NAE1-mediated protein degradation in human MGC-803 cells assessed as decrease in c-IAPI level at 3 uM measured after 48 hrs in the presence of proteosome inhibitor, MG132 by western blot analysis; type: cell-based
[27] = target: T1, NEDD8-activating enzyme E1 regulatory subunit (Homo sapiens); assay: Activation of NAE1-mediated protein degradation in human MGC-803 cells assessed as downregulation of YAP/TAZ level at 1 to 3 uM measured after 48 hrs by western blot analysis; type: cell-based; details: filed as agonist, dose 1-3 µM
MGC-803 [28] = assay: Induction of cell morphological changes in human MGC-803 cells transfected with NEDD8 siRNA at 3 uM measured after 48 hrs by bright field microscopic analysis; type: functional, cell-based

Activity [5]: Active
Activity [6]: inactive
Activity [9]: Active
Activity [11]: inactive
Activity [15]: Active
Activity [19]: Active
Activity [20]: inactive
Activity [21]: Active
Activity [26]: inactive
Activity [27]: Active
SMILES: COc1cc(-c2nc(NC(=O)CSC(=S)N3CCN(C(=O)OC(C)(C)C)CC3)nnc2-c2ccc(C)cc2)cc(OC)c1OC
Activity (MGC-803 [1]): Active
Activity (MGC-803 [2]): Dose-Dependent Effect
Activity (MGC-803 [3]): inactive
Activity (MGC-803 [4]): Active
Activity (HGC-27 [7]): Active
Activity (MGC-803 [8]): Active
inhibition (MGC-803 [10]): Active
Activity (MGC-803 [12]): inactive
Activity (HGC-27 [13]): inactive
Activity (MGC-803 [14]): inactive
Activity (HGC-27 [16]): Active
Activity (MGC-803 [17]): Active
inhibition (MGC-803 [18]): Active
Activity (MGC-803 [22]): Active
Activity (MGC-803 [23]): Active
Activity (HGC-27 [24]): Dose-Dependent Effect
Activity (HGC-27 [25]): inactive
Activity (MGC-803 [28]): inactive

— ChEMBL document CHEMBL4828752, “Discovery of 1,2,4-triazine dithiocarbamate derivatives as NEDDylation agonists to inhibit gastric cancers” (Eur J Med Chem, 2021)
